One data set can be described thus: in vivo. The conditions noted are these: plasma.
Data set [1] deals with repeated corticosterone-injected rats. Conditions: CORT administration model; cited from earlier work.

The term half-life denotes the time in which the quantity being followed falls by half. A lower half-life goes with rapid decline. `CC(C)[C@H](NC(=O)[C@@H]1CCC(=O)NCCC(=O)NCCCC[C@H](NC(=O)[C@H](CCCCN)NC(=O)[C@H](Cc2ccc(O)cc2)NC(=O)[C@H](CC(N)=O)NC(=O)[C@H](CCCCN)NC(=O)[C@@H](N)CSSC[C@@H](N)C(=O)N[C@@H](CCCNC(=N)N)C(=O)N[C@@H](CCCNC(=N)N)C(=O)N[C@@H](CCCNC(=N)N)C(=O)N[C@@H](CCCNC(=N)N)C(=O)N[C@@H](CCCNC(=N)N)C(=O)N[C@@H](CCCNC(=N)N)C(=O)N[C@@H](CCCNC(=N)N)C(N)=O)C(=O)N[C@@H]([C@@H](C)O)C(=O)N1)C(=O)O` [CN2097, R7Cs-sCYK[KTE(β-Ala)]V] had a half-life in the data set “in vivo” of approximately 1 h. As to `CNC1(c2ccccc2Cl)CCCCC1=O` (centres unmarked) [ketamine], in data set [1], the depressive-like behavior entry is on record as “significantly reduced depressive-like behavior”.

The values are drawn from patent US12240920B2, “Cyclic peptidomimetic for the treatment of neurological disorders” (Brown University, priority 2019, dated 2025).
